The values that follow come from publication PMC6544628, “Plasmodium pseudo-Tyrosine Kinase-like binds PP1 and SERA5 and is exported to host erythrocytes” (Scientific Reports, 2019).

In this assay the target is T1, pTKL_KD_WT (PfpTKL kinase domain) (Plasmodium falciparum, UniProt Q8IIT5).
T1 construct: gene pTKL
As to conditions: labelled compound (ATP immobilised on agarose); protein dialyzed against PBS with 1 mM DTT and 1 mM EDTA.

Each structure is given as a SMILES string.

T1 sequence (Q8IIT5 1098-1501): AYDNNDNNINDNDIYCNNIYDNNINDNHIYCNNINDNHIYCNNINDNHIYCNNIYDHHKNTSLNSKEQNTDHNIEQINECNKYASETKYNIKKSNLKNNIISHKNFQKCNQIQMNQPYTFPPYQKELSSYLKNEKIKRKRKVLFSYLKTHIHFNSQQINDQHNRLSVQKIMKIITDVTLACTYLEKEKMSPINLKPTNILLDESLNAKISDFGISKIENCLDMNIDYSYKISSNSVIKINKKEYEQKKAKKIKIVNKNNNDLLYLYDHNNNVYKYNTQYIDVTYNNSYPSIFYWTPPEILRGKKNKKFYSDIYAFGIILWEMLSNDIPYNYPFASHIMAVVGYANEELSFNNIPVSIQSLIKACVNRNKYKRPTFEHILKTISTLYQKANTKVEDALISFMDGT

As for `Nc1ncnc2c1ncn2[C@@H]1O[C@H](COP(=O)(O)OP(=O)(O)OP(=O)(O)O)[C@@H](O)[C@H]1O` [ATP], the “ATP-agarose bead pull-down, anti-His6 western blot” value is listed as “The PfpTKL pseudo-KD was able to bind ATP but did not display any kinase activity”.
